{"source": "PubChem BioAssay (NCI)", "assay_in_all_cases": "growth of human tumour cells (NCI), 48 h", "key": {"[1]": {"system": "HCT-116 colon"}, "[2]": {"system": "SK-OV-3 ovarian"}, "[3]": {"system": "SF-295 CNS"}, "[4]": {"system": "UACC-62 melanoma"}, "[5]": {"system": "SF-268 CNS"}, "[6]": {"system": "HS 578T breast"}, "[7]": {"system": "SW-620 colon"}, "[8]": {"system": "OVCAR-4 ovarian"}, "[9]": {"system": "MCF7 breast"}, "[10]": {"system": "LOX IMVI melanoma"}, "[11]": {"system": "NCI-H226 lung"}, "[12]": {"system": "TK-10 renal"}, "[13]": {"system": "SNB-19 CNS"}, "[14]": {"system": "PC-3 prostate"}, "[15]": {"system": "HL-60(TB) leukemia"}, "[16]": {"system": "OVCAR-5 ovarian"}, "[17]": {"system": "CCRF-CEM leukemia"}, "[18]": {"system": "SK-MEL-28 melanoma"}, "[19]": {"system": "MDA-MB-231 breast"}, "[20]": {"system": "MALME-3M melanoma"}, "[21]": {"system": "A498 renal"}, "[22]": {"system": "SN12C renal"}, "[23]": {"system": "NCI-H522 lung"}, "[24]": {"system": "RXF 393 renal"}, "[25]": {"system": "IGROV1 ovarian"}, "[26]": {"system": "A549 NSCLC"}, "[27]": {"system": "OVCAR-3 ovarian"}, "[28]": {"system": "UACC-257 melanoma"}, "[29]": {"system": "KM12 colon"}, "[30]": {"system": "EKVX NSCLC"}}, "note": "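Method: 48-hour compound exposure of cells in 96-well plates, five concentrations, linear interpolation of endpoints. GI50 marks 50% less growth. TGI denotes the concentration required for complete inhibition of growth.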"}
{"molecule": "CC1(c2ccccc2)NC(=O)N(CC(=O)Nc2ccc(C(=O)/C=C/c3ccccc3)cc2)C1=O", "note": "(centres undefined)", "values": [{"measurement": "GI50", "setting": "[1]", "value": 1.63, "unit": "µM"}, {"measurement": "TGI", "setting": "[1]", "value": 3.35, "unit": "µM"}, {"measurement": "GI50", "setting": "[2]", "value": 17.9, "unit": "µM"}, {"measurement": "TGI", "setting": "[2]", "value": 52.2, "unit": "µM"}, {"measurement": "GI50", "setting": "[3]", "value": 11.9, "unit": "µM"}, {"measurement": "TGI", "setting": "[3]", "value": 26.3, "unit": "µM"}, {"measurement": "GI50", "setting": "[4]", "value": 6.52, "unit": "µM"}, {"measurement": "TGI", "setting": "[4]", "value": 23, "unit": "µM"}, {"measurement": "GI50", "setting": "[5]", "value": 12.4, "unit": "µM"}, {"measurement": "TGI", "setting": "[5]", "value": 48.6, "unit": "µM"}, {"measurement": "GI50", "setting": "[6]", "value": 20.5, "unit": "µM"}, {"measurement": "TGI", "setting": "[6]", "value": "> 100", "unit": "µM"}, {"measurement": "GI50", "setting": "[7]", "value": 15.1, "unit": "µM"}, {"measurement": "TGI", "setting": "[7]", "value": 34.9, "unit": "µM"}, {"measurement": "GI50", "setting": "[8]", "value": 13.3, "unit": "µM"}, {"measurement": "TGI", "setting": "[8]", "value": 96.3, "unit": "µM"}, {"measurement": "GI50", "setting": "[9]", "value": 3.15, "unit": "µM"}, {"measurement": "TGI", "setting": "[9]", "value": 14, "unit": "µM"}, {"measurement": "GI50", "setting": "[10]", "value": 7.56, "unit": "µM"}, {"measurement": "TGI", "setting": "[10]", "value": 20.8, "unit": "µM"}, {"measurement": "GI50", "setting": "[11]", "value": 15.8, "unit": "µM"}, {"measurement": "TGI", "setting": "[11]", "value": 78.1, "unit": "µM"}, {"measurement": "GI50", "setting": "[12]", "value": 17.8, "unit": "µM"}, {"measurement": "TGI", "setting": "[12]", "value": 68.2, "unit": "µM"}, {"measurement": "GI50", "setting": "[13]", "value": 14, "unit": "µM"}, {"measurement": "TGI", "setting": "[13]", "value": 35.6, "unit": "µM"}, {"measurement": "GI50", "setting": "[14]", "value": 7.74, "unit": "µM"}, {"measurement": "TGI", "setting": "[14]", "value": 51.9, "unit": "µM"}, {"measurement": "GI50", "setting": "[15]", "value": 12.3, "unit": "µM"}, {"measurement": "TGI", "setting": "[15]", "value": 68.3, "unit": "µM"}, {"measurement": "GI50", "setting": "[16]", "value": 16.5, "unit": "µM"}, {"measurement": "TGI", "setting": "[16]", "value": 36.6, "unit": "µM"}, {"measurement": "GI50", "setting": "[17]", "value": 5.76, "unit": "µM"}, {"measurement": "TGI", "setting": "[17]", "value": 41.3, "unit": "µM"}, {"measurement": "GI50", "setting": "[18]", "value": 14.3, "unit": "µM"}, {"measurement": "TGI", "setting": "[18]", "value": 29.1, "unit": "µM"}, {"measurement": "GI50", "setting": "[19]", "value": 11.7, "unit": "µM"}, {"measurement": "TGI", "setting": "[19]", "value": 30.9, "unit": "µM"}, {"measurement": "GI50", "setting": "[20]", "value": 15, "unit": "µM"}, {"measurement": "TGI", "setting": "[20]", "value": 38.9, "unit": "µM"}, {"measurement": "GI50", "setting": "[21]", "value": 14.2, "unit": "µM"}, {"measurement": "TGI", "setting": "[21]", "value": 28.7, "unit": "µM"}, {"measurement": "GI50", "setting": "[22]", "value": 11.5, "unit": "µM"}, {"measurement": "TGI", "setting": "[22]", "value": 35, "unit": "µM"}, {"measurement": "GI50", "setting": "[23]", "value": 11.1, "unit": "µM"}, {"measurement": "TGI", "setting": "[23]", "value": 27.4, "unit": "µM"}, {"measurement": "GI50", "setting": "[24]", "value": 5.81, "unit": "µM"}, {"measurement": "TGI", "setting": "[24]", "value": 21.6, "unit": "µM"}, {"measurement": "GI50", "setting": "[25]", "value": 12.9, "unit": "µM"}, {"measurement": "TGI", "setting": "[25]", "value": 27.7, "unit": "µM"}, {"measurement": "GI50", "setting": "[26]", "value": 10.8, "unit": "µM"}, {"measurement": "TGI", "setting": "[26]", "value": 27.7, "unit": "µM"}, {"measurement": "GI50", "setting": "[27]", "value": 11.8, "unit": "µM"}, {"measurement": "TGI", "setting": "[27]", "value": 26.8, "unit": "µM"}, {"measurement": "GI50", "setting": "[28]", "value": 13.1, "unit": "µM"}, {"measurement": "TGI", "setting": "[28]", "value": 27.4, "unit": "µM"}, {"measurement": "GI50", "setting": "[29]", "value": 4.94, "unit": "µM"}, {"measurement": "TGI", "setting": "[29]", "value": 26.8, "unit": "µM"}, {"measurement": "GI50", "setting": "[30]", "value": 7.62, "unit": "µM"}]}
